Laboratory results: PubChem BioAssay AID2801 (Sanford-Burnham Center for Chemical Genomics, 2010)

System: TNFa-induced NF-kB reporter cells, inhibition
Assay: TNFa-triggered NF-kB activation inhibitors, SAR follow-up, cell-based, set 3 (AID 2801)

- IC50: 13 µM
SMILES: CCCCn1c(SCC(=O)Nc2nnc(CC)s2)nc2c1c(=O)n(C)c(=O)n2C
